Measured values published in ChEMBL document CHEMBL3407408, “Design and synthesis of a new class of cryptophycins based tubulin inhibitors” (Eur J Med Chem, 2015).
The source made the active and inactive calls. The calls are words filed in the database; no cut-off is given here.

Assays:
[1] = Cytotoxicity against human FR2 cells after 48 hrs by MTT assay; type: cell-based; conditions: FR2, 48 h
[2] = Cytotoxicity against human PC3 cells after 48 hrs by MTT assay; type: functional, cell-based; conditions: PC-3, 48 h
[3] = test system: A549; assay: cells; conditions: Homo sapiens, A549, 48 h
Description: Cytotoxicity against human A549 cells after 48 hrs by MTT assay

[4] = test system: HeLa; assay: cells; conditions: Homo sapiens, 48 h
Description: Cytotoxicity against human HeLa cells after 48 hrs by MTT assay

[5] = test system: A549; assay: Cell cycle arrest in human A549 cells assessed as accumulation at G2/M phase at 1 uM by propidium iodide staining-based flow cytometric analysis (reference value: 5%); type: functional
[6] = test system: A549; assay: Cell cycle arrest in human A549 cells assessed as accumulation at S phase at 10 uM after 24 hrs by propidium iodide staining-based flow cytometric analysis (reference value: 26%); type: functional
[7] = test system: A549; assay: Cell cycle arrest in human A549 cells assessed as accumulation at sub-G0 phase at 10 uM after 24 hrs by propidium iodide staining-based flow cytometric analysis (reference value: 5%); type: functional
[8] = test system: A549; assay: Cell cycle arrest in human A549 cells assessed as increase in hypo diploid sub-G0 DNA fraction after 24 hrs by propidium iodide staining-based flow cytometric analysis; type: functional
[9] = test system: A549; assay: Induction of apoptosis in human A549 cells assessed as formation of multiple apoptotic bodies at 10 to 30 uM after 24 hrs by Hoechst 33258 staining-based inverted fluorescence microscopic analysis; type: functional, cell-based
[10] = test system: A549; assay: Downregulation of beta-tubulin protein expression in human A549 cells at 10 to 30 uM after 24 hrs by Western blot analysis; type: functional, cell-based
[11] = test system: A549; assay: Induction of apoptosis in human A549 cells assessed as shrinkage of cell size at 10 to 30 uM after 24 hrs by phase contrast microscopic analysis; type: functional, cell-based
[12] = test system: A549; assay: Cell cycle arrest in human A549 cells assessed as accumulation at S phase at 30 uM after 24 hrs by propidium iodide staining-based flow cytometric analysis (reference value: 26%); type: functional
[13] = test system: A549; assay: Cell cycle arrest in human A549 cells assessed as accumulation at sub-G0 phase at 30 uM after 24 hrs by propidium iodide staining-based flow cytometric analysis (reference value: 5%); type: functional
[14] = test system: A549; assay: Cell cycle arrest in human A549 cells assessed as accumulation at G1 phase at 30 uM after 24 hrs by propidium iodide staining-based flow cytometric analysis (reference value: 69%); type: functional
[15] = test system: A549; assay: Induction of apoptosis in human A549 cells assessed as cellular blebs at 10 to 30 uM after 24 hrs by phase contrast microscopic analysis; type: functional, cell-based
[16] = test system: A549; assay: Cell cycle arrest in human A549 cells assessed as accumulation at G2/M phase at 10 uM after 24 hrs by propidium iodide staining-based flow cytometric analysis (reference value: 5%); type: functional
[17] = test system: A549; assay: Cell cycle arrest in human A549 cells assessed as accumulation at G1 phase at 10 uM after 24 hrs by propidium iodide staining-based flow cytometric analysis (reference value: 69%); type: functional
[18] = test system: A549; assay: Cell cycle arrest in human A549 cells assessed as accumulation at G2/M phase at 30 uM after 24 hrs by propidium iodide staining-based flow cytometric analysis (reference value: 5%); type: functional
[19] = test system: A549; assay: Downregulation of alpha-tubulin protein expression in human A549 cells at 10 to 30 uM after 24 hrs by Western blot analysis; type: functional, cell-based
[20] = test system: A549; assay: Induction of apoptosis in human A549 cells assessed as […] at 10 to 30 uM after 24 hrs by phase contrast microscopic analysis; type: functional, cell-based

Row | IC50 [3] [µM] | IC50 [4] [µM] | SMILES | IC50 [1] [µM] | IC50 [2] [µM] | also measured
1 | > 100 | 100 | COc1ccc(C[C@@H]2NC(=O)/C=C/C[C@@H](c3c(F)c(F)c(F)c(F)c3F)OC(=O)[C@H](CC(C)C)OC(=O)CCNC2=O)cc1 | 79 | 100 | 
2 | 90 | 35 | COc1ccc(C[C@@H]2NC(=O)/C=C/C[C@@H](c3cccc([N+](=O)[O-])c3)OC(=O)[C@H](CC(C)C)OC(=O)CCNC2=O)cc1 | 93 | 100 | 
3 | 60 | 55 | COc1ccc(C[C@H]2NC(=O)/C=C/C[C@@H](c3ccc(Br)cc3)OC(=O)[C@H](CC(C)C)OC(=O)CCNC2=O)cc1 | 87 | 60 | 
4 | 100 | 90 | COc1ccc(C[C@H]2NC(=O)/C=C/C[C@@H](c3ccc(Cl)cc3Cl)OC(=O)[C@H](CC(C)C)OC(=O)CCNC2=O)cc1 | > 100 | 100 | 

Further lines, the compound ahead of its results:

Row | SMILES | IC50 [3] [µM] | IC50 [4] [µM] | IC50 [1] [µM] | IC50 [2] [µM] | also measured
5 | CC(=O)O[C@H]1C(=O)[C@@]2(C)[C@H]([C@H](OC(=O)c3ccccc3)[C@]3(O)C[C@H](OC(=O)[C@H](O)[C@@H](NC(=O)c4ccccc4)c4ccccc4)C(C)=C1C3(C)C)[C@]1(OC(C)=O)CO[C@@H]1C[C@@H]2O [PACLITAXEL] | 0.025 |  | 16 | 0.012 | Activity [5]: 45%
6 | COc1ccc(C[C@H]2NC(=O)/C=C/C[C@@H](c3ccccc3[N+](=O)[O-])OC(=O)[C@H](CC(C)C)OC(=O)CCNC2=O)cc1 | 15 | 29 | > 100 | 67 | 
7 | COc1ccc(C[C@H]2NC(=O)/C=C/C[C@@H](c3ccc([N+](=O)[O-])cc3)OC(=O)[C@H](CC(C)C)OC(=O)CCNC2=O)cc1 | 10 | 28 | 97 | 15 | Activity [6]: 35%; Activity [7]: 11%; Activity [8]: Dose-dependent effect; Activity [9]: Active; Activity [10]: Active; Activity [11]: Active; Activity [12]: 30%; Activity [13]: 26%; Activity [14]: 62%; Activity [15]: Active; Activity [16]: 6%; Activity [17]: 59%; Activity [18]: 8%; Activity [19]: Active; Activity [20]: Active
8 | COc1ccc(C[C@@H]2NC(=O)/C=C/C[C@@H](c3ccc(Cl)cc3Cl)OC(=O)[C@H](CC(C)C)OC(=O)CCNC2=O)cc1 | 45 | 33 | > 100 | 32 | 
9 | COc1ccc(C[C@H]2NC(=O)/C=C/C[C@@H](c3c(F)c(F)c(F)c(F)c3F)OC(=O)[C@H](CC(C)C)OC(=O)CCNC2=O)cc1 | 30 | 78 | > 100 | 70 | 
10 | COc1ccc(C[C@@H]2NC(=O)/C=C/C[C@@H](c3ccc(Br)cc3)OC(=O)[C@H](CC(C)C)OC(=O)CCNC2=O)cc1 | 56 | 60 | > 100 | 68 | 
11 | COc1ccc(C[C@@H]2NC(=O)/C=C/C[C@@H](c3ccccc3[N+](=O)[O-])OC(=O)[C@H](CC(C)C)OC(=O)CCNC2=O)cc1 | 13 | 47 | 90 | 100 | 
12 | COc1ccc(C[C@@H]2NC(=O)/C=C/C[C@@H](c3ccc([N+](=O)[O-])cc3)OC(=O)[C@H](CC(C)C)OC(=O)CCNC2=O)cc1 | 11 | 40 | 78 | 70 | Activity [6]: 25%; Activity [7]: 19%; Activity [8]: Dose-dependent effect; Activity [9]: Active; Activity [10]: Active; Activity [11]: Active; Activity [12]: 1%; Activity [13]: 49%; Activity [14]: 80%; Activity [15]: Active; Activity [16]: 10%; Activity [17]: 65%; Activity [18]: 19%; Activity [19]: Active; Activity [20]: Active
13 | COc1ccc(C[C@H]2NC(=O)/C=C/C[C@@H](c3cccc([N+](=O)[O-])c3)OC(=O)[C@H](CC(C)C)OC(=O)CCNC2=O)cc1 | > 100 | > 100 | > 100 | > 100 | 
